Measurements as given in PubChem BioAssay AID624365 (Broad Institute, 2012).
Values joined by “and” are separate entries in the source; they are usually repeats but may differ in a detail not shown here. Identical values can stand only once. Results filed as inconclusive are left out. Active and inactive are the calls of the source.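 Rule for the calls: active = fitted curve drops past -35% activity change at a concentration up to twice the top valid dose tested; inconclusive = no clear call, values can overlap the other calls; inactive = activity opposite to the expected decrease, or the rest.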

Legend:
[1] = tested on: HepG2 viability, CellTiter-Glo luminescence, 48 h; experiment: cytotoxicity in HepG2 hepatoma cells – cell-based, CellTiter-Glo luminescence, dry powder, cytotoxicity control for LMP1 inhibitor project, dose response (AID 624365)
[2] = as above; conditions: HepG2 viability, CellTiter-Glo luminescence, 48 h

Row | SMILES | AC35 [1] | activity change, negative = cytotoxicity ([2]; at 19.5 µM (top of the series)) | also measured
1 | C[C@H]1CCCCO[C@@H](CN(C)CC2CCCCC2)[C@@H](C)CN([C@@H](C)CO)C(=O)c2cc(NC(=O)C3CCCCC3)ccc2O1 | 21.4 µM | – | –
2 | CCc1ccc(/C=C/C(=O)C2C(=O)c3ccccc3C2=O)cc1 | – | -7.16% (inactive) | –
3 | CC1=C(C(=O)OCc2ccc3c(c2)OCO3)C(c2ccc(F)cc2)NC(=O)N1 (centres undefined) | – | 2.83% (inactive) | –
4 | Cc1ccnc(NC(=O)c2ccc(C(=O)c3ccccc3)cc2)c1 | – | -6.85% (inactive) | –
5 | Cc1ccc(S(=O)(=O)Nc2ccc3c(c2)C(=O)N([C@@H](C)CO)C[C@H](C)[C@@H](CN(C)C(=O)CCC(F)(F)F)OCCCC[C@H](C)O3)cc1 | – | 1.23% (inactive) | –
6 | C/C(=N\NC(=S)N1CCCCC1)c1cccc(C)n1 | 2.55 µM | – | –
7 | C[C@@H]1CCCCO[C@H](CN(C)C(=O)NC2CCCCC2)[C@H](C)CN([C@@H](C)CO)C(=O)c2cc(NC(=O)C3CCCCC3)ccc2O1 | – | 11% (inactive) | –
8 | Cc1ccc(NC(=O)C2CCN(S(=O)(=O)c3ccc4c(c3)NC(=O)C(C)S4)CC2)cc1Cl (centres undefined) | – | -15.1% (inactive) | –
9 | C[C@@H]1CCCCO[C@@H](CN(C)Cc2ccccc2)[C@H](C)CN([C@H](C)CO)C(=O)c2cc(NC(=O)Nc3ccc4c(c3)OCO4)ccc2O1 | – | -6.99% (inactive) | –
10 | COc1ccc(-c2csc3ncnc(NCCN4CCOCC4)c23)cc1 | – | -1.72% (inactive) | –
11 | C[C@@H]1CCCCO[C@H](CN(C)C(=O)CCC(F)(F)F)[C@H](C)CN([C@@H](C)CO)C(=O)c2cc(NC(=O)CCC(F)(F)F)ccc2O1 | – | 6.76% (inactive) | –
12 | O=C(CSc1nnc2c3ccccc3n(Cc3ccccc3)c2n1)NCc1ccco1 | 19.5 µM | – | –
13 | Nc1ccn([C@@H]2O[C@H](CO)[C@@H](O)C2O)c(=O)n1 (some centres undefined) | 7.36 µM | – | –
14 | CCc1sc(C(=O)Nc2ncccc2O)cc1C | – | -0.832% (inactive) | –
15 | C[C@H](CO)N1C[C@H](C)[C@@H](CN(C)CC2CCCCC2)OCCCC[C@H](C)Oc2ccc(NC(=O)Nc3cccc4ccccc34)cc2C1=O | – | -6.9% (inactive) | –
16 | COc1ccc(C(=O)Nc2ccc3[nH]ccc3c2)cc1 | – | 1.7% (inactive) | –
17 | Cc1cc(NC(=O)c2ccc3c(c2)OCCO3)no1 | – | 14.9% (inactive) | –
18 | CC12CCC3C(CC=C4CC(O)CCC43CO)C1CCC2OC(=O)c1ccccc1 (centres undefined) | – | 0.538% (inactive) | –
19 | C/C=C/C/C=C/CCC(=O)[C@H]1O[C@H]1C(N)=O | 14 µM and 60.1 µM | – | –
20 | CC(C)=CCN(C(=O)C#Cc1ccccc1)[C@H](CO)c1ccccc1 | 20.3 µM | – | –
21 | O=C(Nc1cc(C(F)(F)F)cc(C(F)(F)F)c1)Nc1cnn(-c2ccc([N+](=O)[O-])cc2)c1C(F)(F)F | – | 11.8% (inactive) | –
22 | C[C@H](CO)N1C[C@H](C)[C@H](CN(C)C(=O)Nc2ccc(C(F)(F)F)cc2)OCCCC[C@H](C)Oc2ccc(NC(=O)Nc3ccc(F)cc3)cc2C1=O | 55.6 µM | – | –

Row | SMILES | AC35 [1] | activity change, negative = cytotoxicity ([2]; at 19.5 µM (top of the series)) | also measured
23 | CC1CN(C(=O)CSc2nnc3c4ccccc4n(Cc4cccc(Cl)c4)c3n2)CCN1C(=O)c1ccccc1F (centres undefined) | – | -2.74% (inactive) | –
24 | COc1ccc(NC(=O)c2ccc(OC(C)C(=O)O)cc2)cc1Cl (centres undefined) | – | – | activity change, negative = cytotoxicity ([2]; at 21 µM (top of the series)): -17.9% (inactive)
25 | COc1ccc(-c2cc3nc4n(c(=O)c3s2)CCC4)cc1 | – | -14.3% (inactive) | –
26 | COc1ccc2[nH]c(C(=O)N/N=C/c3ccc(O)cc3O)cc2c1 | 46.4 µM | – | –
27 | C/C(=N\NC(=S)Nc1ccc(C)cc1)c1ccccn1 | 11.9 µM | – | –
28 | O=c1[nH]c(Nc2nc3ccccc3o2)nc2c1CCCC2 | – | -6.44% (inactive) | –
29 | COc1ccc2nc(Nc3nc(C)c(CCC(C)C)c(=O)[nH]3)nc(C)c2c1 | 3.44 µM | – | –
30 | C/C(=N\NC(=S)N1CC2CCC(CC2)C1)c1cccc(C)n1 | – | -9.43% (inactive) | –
31 | C=C1C[C@]23C[C@@]1(O)CC[C@@H]2c1cccc(C)c1[C@@H]3C(=O)O | – | -23.5% (inactive) | –
32 | CC(=O)Nc1nc(C)c(-c2csc(Nc3ccc(O)cc3)n2)s1 | 19.6 µM | – | –
33 | C[C@@H]1CN([C@@H](C)CO)C(=O)c2cc(NC(=O)Nc3ccc(C(F)(F)F)cc3)ccc2O[C@@H](C)CCCCO[C@@H]1CN(C)CC1CCCCC1 | 40.7 µM | – | –
34 | Fc1ccc2c(c1)c1nnc(SCCN3CCOCC3)nc1n2Cc1ccccc1 | 33.7 µM | – | –
35 | C/C(=N\NC(=S)N1CCN(c2ccccn2)CC1)c1ccccn1 | – | – | activity change, negative = cytotoxicity ([2]; at 10 µM (top of the series)): -18.8% (inactive)
36 | C[C@@H]1CN([C@@H](C)CO)C(=O)c2cc(NC(=O)Nc3ccc(C(F)(F)F)cc3)ccc2O[C@@H](C)CCCCO[C@H]1CN(C)Cc1ccc(C(F)(F)F)cc1 | – | -1.82% (inactive) | –
37 | C[C@H](CO)N1C[C@H](C)[C@@H](CN(C)Cc2ccc(-c3ccccc3)cc2)Oc2ccc(NC(=O)Nc3cccc4ccccc34)cc2CC1=O | 37 µM | – | –
38 | CNC[C@@H]1Oc2ccc(NS(=O)(=O)c3cn(C)cn3)cc2CC(=O)N([C@H](C)CO)C[C@@H]1C | – | – | activity change, negative = cytotoxicity ([2]; at 21 µM (top of the series)): -1.51% (inactive)
39 | Cc1c(NC(=O)c2cccc(NC(=O)COc3ccccc3C#N)c2)c(=O)n(-c2ccccc2)n1C | – | 0.795% (inactive) | –
40 | CSC(=S)N/N=C(\C)c1cccc(C)n1 | – | 1.36% (inactive) | –
41 | CCn1c2ccccc2c2cc(/C=N/n3cnnc3)ccc21 | 22.1 µM | – | –
42 | C[C@@H]1CCCCO[C@H](CN(C)CC2CCCCC2)[C@H](C)CN([C@@H](C)CO)C(=O)c2cc(NC(=O)NC3CCCCC3)ccc2O1 | – | -0.214% (inactive) | –
43 | C[C@@H]1CCCCO[C@H](CN(C)C(=O)c2ccccc2)[C@H](C)CN([C@@H](C)CO)C(=O)c2cc(NC(=O)Nc3ccc(F)cc3)ccc2O1 | – | -6.27% (inactive) | –
44 | C[C@H](CO)N1C[C@H](C)[C@@H](CN(C)CC2CC2)OCCCC[C@H](C)Oc2ccc(NC(=O)Nc3cccc4ccccc34)cc2C1=O | 79.9 µM | – | –

Row | SMILES | AC35 [1] | activity change, negative = cytotoxicity ([2]; at 19.5 µM (top of the series)) | also measured
45 | C/C(=N\NC(=S)Nc1cccc(Cl)c1)c1ccccn1 | 13.2 µM | – | –
46 | CCc1ccc(/C=C2\SC(=S)N(CCCC(=O)Nc3ccccn3)C2=O)cc1 | – | -1.2% (inactive) | –
47 | CSc1nc(-c2ccc(C)cc2)nc(C(Cl)Cl)n1 | 36 µM | – | –
48 | Oc1cccc(C(Nc2nccs2)c2ccc3cccnc3c2O)c1 (centres undefined) | – | 3.87% (inactive) | –
49 | C[C@@H]1CCCCO[C@H](CN(C)S(=O)(=O)c2ccccc2)[C@@H](C)CN([C@@H](C)CO)C(=O)c2cc(N(C)C)ccc2O1 | – | -0.756% (inactive) | –
50 | C/C(=N\NC(=S)Nc1ccccc1)c1ccccn1 | – | – | activity change, negative = cytotoxicity ([2]; at 10 µM (top of the series)): -2.52% (inactive)
51 | C=C1C[C@]23C[C@@]1(O)CC[C@H]2[C@@]12C=C[C@H](O)[C@@](C)(C(=O)O1)[C@H]2[C@@H]3C(=O)O | – | – | activity change, negative = cytotoxicity ([2]; at 12 µM (top of the series)): 9.94% (inactive)
52 | COCCCNC(=O)C(C)Sc1nnc2c3cc(C)ccc3n(Cc3ccccc3F)c2n1 (centres undefined) | – | -14.5% (inactive) | –
53 | CCCSc1nnc2c3ccccc3n(Cc3ccccc3)c2n1 | – | -1.67% (inactive) | –
54 | O=C1/C(=C/c2ccncc2)SC(=S)N1Cc1ccccc1 | – | -5.23% (inactive) | –
55 | O=C(CCc1ccccc1)NC(c1cccs1)c1cc(Cl)c2cccnc2c1O (centres undefined) | – | 1.94% (inactive) | –
56 | COc1cccc(/C=N/Nc2ncnc3c2ncn3Cc2ccccc2)c1O | 26.4 µM | – | –
57 | CCN1CCN(C(c2cccnc2)c2cc(Cl)c3cccnc3c2O)CC1 (centres undefined) | – | -19.9% (inactive) | –
58 | O=c1[nH]c(=O)n([C@H]2C[C@H](O)[C@@H](CO)O2)cc1C(F)(F)F | 14.3 µM | – | –
59 | C[C@@H]1CN([C@@H](C)CO)C(=O)c2cccc(NC(=O)Nc3cccc4ccccc34)c2O[C@H]1CN(C)C(=O)Nc1ccc(C(F)(F)F)cc1 | – | -1.58% (inactive) | –
60 | C[C@@H]1CN([C@@H](C)CO)C(=O)c2cc(NC(=O)Nc3ccc4c(c3)OCO4)ccc2O[C@H]1CN(C)CC1CCCCC1 | 28.9 µM | – | –
61 | C=CCN1Cc2ccccc2[C@@H]2OC(c3ccc(OCCCO)cc3)=N[C@]2(CCC(=O)OC(C)(C)C)C1=O | – | 4.76% (inactive) | –
62 | c1ccc(-c2cn3c4c(sc3n2)CCCC4)cc1 | – | -13.4% (inactive) | –
63 | Cc1ccc(S(=O)(=O)NC(CC(C)C)C(=O)NCC(c2ccco2)N2CCCCC2)cc1 (centres undefined) | – | 14.4% (inactive) | –
64 | C/C(=N\NC(=S)Nc1ccccc1Cl)c1ccccn1 | 9.26 µM | – | –
